Laboratory results reported in patent publication US9926304B2, “1-(arylmethyl)quinazoline-2,4(1H,3H)-diones as PARP inhibitors and the use thereof” (Impact Therapeutics, Inc., priority 2011, dated 2018).
Read-outs that look alike come from different tables or passages of the source.

Key:
[1] = test system: SW620 human colorectal cancer cells; test: MTT based cell viability assay: potentiation of the growth inhibiting activity of MMS
Procedure: Briefly, SW620 human colorectal cancer cells were used to measure the cell growth inhibiting activity of DNA alkylating anticancer drug MMS. […] SW620 cells were grown and maintained in RPMI1640 (Gibco) medium supplemented with 10% FBS (Hyclone). In the first day of experiment, 4000 cells were seeded to each well of a 96-well cell culture plate and incubated at 37° C. and 5% CO2 in a cell culture incubator overnight. In the next day, the cell culture medium was removed. […] The serial dilutions of the reference compounds and the compounds to be tested were made with a 1:3 and 1:10 fashion in DMSO. The 10-fold concentrated solutions of these compounds were made by mixing 10 μl of the serial dilutions in DMSO with 90 μl fresh medium. The final concentration of DMSO in the medium was 1%. The cells were incubated at 37° C. in 5% CO2 cell culture incubator for additional 5 days (120 hours). Afterwards, the 96-well cell culture plate was taken out and 20 μl of MTT solution was added to each well and incubated at 37° C. for 4 h. The medium was removed and 100 μl DMSO was added to each well. The 96-well cell culture plates were shaked adequately for 10 min and read in a Varioskan Flash plate reader (Thermo Fisher Scientific) at 520 and 690 nm. The data were analyzed by Prism 5 software (GraphPad). The obtained 520 nm absorbance readings subtracting corresponding 690 nm reading were analyzed and plotted against the Log scale of the compound concentrations.

[2] = test system: Human breast cancer cell line T47D; test: Cell based caspase-3 activity assay: potentiation of MMS induced apoptosis; details: T47D cells, 11.1 μg/ml MMS, 24 hours, intracellular caspase-3 activity, read-out: EC50 (nM), potentiation of the apoptosis inducing activity of MMS
Text: Determination of the synergistic potentiation effect of 1-(3-(4-(pyrimidin-2-yl)piperazine-1-carbonyl)benzyl)quinazoline-2,4(1H,3H)-dione and analogs on MMS induced apoptosis using a cell based caspase-3 activity assay
Human breast cancer cell line T47D was used to determine the potentiation effect of PARP inhibitors on the apoptosis inducing activity of DNA damaging anticancer drugs such as MMS. Intracellular caspase-3 activity was used to measure cell apoptosis. The dose response effect of MMS to induce intracellular caspase activity was carefully titrated and the concentration that only induces a minimal level of caspase activity was used to test the potentiation effect of PARP inhibitors. Briefly, T47D cells were grown in DMEM/F12 cell culture medium (Hyclone) supplemented with 0.2 U/ml insulin (Genview) and 10% FBS (Hyclone). A day before experiment, 20000 of T47D cells were seeded to each well of a 96-well cell culture plate and maintained at 37° C. and 5% CO2 in a cell culture incubator overnight. On the day of experiment, cell culture medium was removed. One hundred and eighty μl of fresh medium containing 11.1 μg/ml MMS was added to each well and followed by 20 μl medium containing 10 folds of the concentrations of experimental drugs or reference compounds (ADZ2281 and ABT-888). The serial dilutions of the compounds to be tested and the reference compounds were made in a 1:3 and 1:10 fashion in DMSO. The 10-fold compound solutions were made by mixing 10 μl DMSO serial dilution solutions with 90 μl fresh growth medium. Twenty four hours later, the cells in the 96-well plates were centrifuged at 1000 g for 5 min and the supernatants were removed. Fifty μl lysis buffer (10 mM Tris, pH7.5, 0.1M NaCl, 1 mM EDTA, 0.01% Triton X-100) was added to each well and the plates were shaked horizontally for 30 min at 4° C. After centrifugation at 1000 g at 4° C. for 10 min, 20 μl of supernatant was transferred from each well to a corresponding well in a 384-well black plate. Twenty μl of buffer (20 mM PIPES, pH7.4, 4 mM EDTA and 0.2% CHAPS) containing 20 μM fluorescent caspase-3 substrate ((Ac-DEVD)2-R110, AnaSpec Cat #60304-5) was added to each well afterwards. The plates were shaked to uniformly mix the wells and incubated at 37° C. for 3 h. The fluorescence intensity was measured using the following wavelength: ex: 496 nm, em: 520 nm using a fluorescence plate reader (Varioskan Flash, Thermo Fisher Scientific). The caspase-3 activity induced by the compounds was expressed as a relative fluorescence unit (RFU). The obtained fluorescence readings were analyzed using a commercial graphic software (GraphPad Prism 5) and plotted against the Log value of the compound concentrations. The EC50 values were obtained by fitting the data points with the equation of Y (fluorescence reading)=minimal fluorescence reading+(maximal fluorescence reading−minimal fluorescence reading)/(1+10^(Log EC50−Log C)), where C is the concentration of the testing compound.
The synergistic potentiation effect of compounds on MMS induced apoptosis in T47D cells is expressed as EC50 values and listed in Table 2.

[3] = Homo sapiens, SW-620, 120 h, read-out: IC50 (nM), potentiation of the growth inhibiting activity of MMS, SW620 cells, 1.7 μg/ml MMS, 5 days (120 hours), MTT

Row | IC50 [1, 3] [nM] | EC50 ([2]; Homo sapiens, T47D, 24 h) [nM] | IC50 ([1]; read-out: IC50 (nM), potentiation of the growth inhibiting activity of MMS, SW620 cells, 1.7 μg/ml MMS, 5 days (120 hours), MTT) [nM] | EC50 [2] [nM] | SMILES
1 | 52 | 18 |  |  | Cc1ccc2c(c1)c(=O)[nH]c(=O)n2Cc1ccc(F)c(C(=O)N2CCN(C(=O)C3CCCCC3)CC2)c1 [Example 84, 1-(3-(4-(Cyclohexylcarbonyl)piperazine-1-carbonyl)-4-fluorobenzyl)-6-methylquinazoline-2,4(1H,3H)-dione]
2 | > 10000 | 4170 |  |  | O=C(c1cccc(Cn2c(=O)[nH]c(=O)c3cc([N+](=O)[O-])ccc32)c1)N1CCN(C(=O)C2CCCC2)CC1 [Example 90, 1-(3-(4-(Cyclopentylcarbonyl)piperazine-1-carbonyl)benzyl)-6-nitroquinazoline-2,4(1H,3H)-dione]
3 | > 10000 | 1990 |  |  | O=C(c1cccc(Cn2c(=O)[nH]c(=O)c3cc([N+](=O)[O-])ccc32)c1)N1CCN(c2ncccn2)CC1 [Example 91, 6-Nitro-1-(3-(4-(pyrimidin-2-yl)piperazine-1-carbonyl)benzyl)quinazoline-2,4 (1H,3H)-dione]
4 | > 10000 | > 10000 |  |  | COc1ccc(C(=O)N2CCN(C(=O)c3ccc(Cn4c(=O)[nH]c(=O)c5ccccc54)cc3)CC2)cc1 [Example 95, 1-(4-(4-(4-Methoxybenzoyl)piperazine-1-carbonyl)benzyl)quinazoline-2,4(1H,3H)-dione]
5 | > 10000 | > 10000 |  |  | O=C(c1ccc(Cn2c(=O)[nH]c(=O)c3ccccc32)cc1)N1CCN(c2ncccn2)CC1 [Example 97, 1-(4-(4-(Pyrimidin-2-yl)piperazine-1-carbonyl)benzyl)quinazoline-2,4(1H,3H)-dione]
6 | > 10000 | > 10000 |  |  | O=C(c1ccc(Br)cc1)N1CCN(C(=O)c2ccc(Cn3c(=O)[nH]c(=O)c4ccccc43)cc2)CC1 [Example 98, 1-(4-(4-(4-Bromobenzoyl)piperazine-1-carbonyl)benzyl)quinazoline-2,4(1H,3H)-dione]
7 | 87 | 26 |  |  | O=C(c1cccc(Cn2c(=O)[nH]c(=O)c3c(Cl)cccc32)c1)N1CCN(C(=O)C2CCCCC2)CC1 [Example 102, 5-Chloro-1-(3-(4-(cyclohexylcarbonyl)piperazine-1-carbonyl)benzyl)quinazoline-2,4(1H,3H)-dione]

Second part, the compound before the results:

Row | SMILES | IC50 [1, 3] [nM] | EC50 ([2]; Homo sapiens, T47D, 24 h) [nM] | IC50 ([1]; read-out: IC50 (nM), potentiation of the growth inhibiting activity of MMS, SW620 cells, 1.7 μg/ml MMS, 5 days (120 hours), MTT) [nM] | EC50 [2] [nM]
8 | O=C(c1cccc(Cn2c(=O)[nH]c(=O)c3ccc(F)cc32)c1)N1CCN(C(=O)C2CCCC2)CC1 [Example 77, 1-(3-(4-(Cyclopentylcarbonyl)piperazine-1-carbonyl)benzyl)-7-fluoroquinazoline-2,4(1H,3H)-dione] | 2960 | 5210 |  | 
9 | O=C(c1cccc(Cn2c(=O)[nH]c(=O)c3ccc(F)cc32)c1)N1CCN(c2ncccn2)CC1 [Example 78, 7-Fluoro-1-(3-(4-(pyrimidin-2-yl)piperazine-1-carbonyl)benzyl)quinazoline-2,4(1H,3H)-dione] | 269 | 112 |  | 
10 | Cc1ccc2c(=O)[nH]c(=O)n(Cc3cccc(C(=O)N4CCN(C(=O)C5CCCC5)CC4)c3)c2c1 [Example 79, 1-(3-(4-(Cyclopentylcarbonyl)piperazine-1-carbonyl)benzyl)-7-methylquinazoline-2,4(1H,31H)-dione] |  |  | 5540 | 3220
11 | Cc1ccc2c(=O)[nH]c(=O)n(Cc3cccc(C(=O)N4CCN(c5ncccn5)CC4)c3)c2c1 [Example 80, 7-Methyl-1-(3-(4-(pyrimidin-2-yl)piperazine-1-carbonyl)benzyl)quinazoline-2,4(1H,3H)-dione] | > 10000 | 1190 |  | 
12 | Cc1ccc2c(c1)c(=O)[nH]c(=O)n2Cc1cccc(C(=O)N2CCN(C(=O)C3CCCC3)CC2)c1 [Example 82, 1-(3-(4-(Cyclopentylcarbonyl)piperazine-1-carbonyl)benzyl)-6-methylquinazoline-2,4(1H,3H)-dione] | 459 | 154 |  | 
13 | O=C(c1cccc(Cn2c(=O)[nH]c(=O)c3cc(Br)ccc32)c1)N1CCN(C(=O)C2CCCCC2)CC1 [Example 86, 6-Bromo-1-(3-(4-(cyclohexylcarbonyl)piperazine-1-carbonyl)benzyl)quinazoline-2,4(1H,3H)-dione] | 86 | 27 |  | 
14 | O=C(c1cccc(Cn2c(=O)[nH]c(=O)c3cc(Br)ccc32)c1)N1CCN(C(=O)C2CCCC2)CC1 [Example 87, 6-Bromo-1-(3-(4-(cyclopentylcarbonyl)piperazine-1-carbonyl)benzyl)quinazoline-2,4(1H,3H)-dione] | 35 | 27 |  | 
15 | O=C(c1cccc(Cn2c(=O)[nH]c(=O)c3cc(Br)ccc32)c1)N1CCN(c2ncccn2)CC1 [Example 88, 6-Bromo-1-(3-(4-(pyrimidin-2-yl)piperazine-1-carbonyl)benzyl)quinazoline-2,4(1H,3H)-dione] | 137 | 67 |  | 
16 | O=C(c1cccc(Cn2c(=O)[nH]c(=O)c3cc([N+](=O)[O-])ccc32)c1)N1CCN(C(=O)C2CCCCC2)CC1 [Example 92, 1-(3-(4-(Cyclohexylcarbonyl)piperazine-1-carbonyl)benzyl)-6-nitroquinazoline-2,4(1H,3H)-dione] | > 10000 | 2930 |  | 
17 | O=C(c1ccccc1)N1CCN(C(=O)c2ccc(Cn3c(=O)[nH]c(=O)c4ccccc43)cc2)CC1 [Example 93, 1-(4-(4-Benzoylpiperazine-1-carbonyl)benzyl)quinazoline-2,4(1H,3H)-dione] | > 10000 | > 10000 |  | 
18 | O=C(c1ccc(Cn2c(=O)[nH]c(=O)c3ccccc32)cc1)N1CCN(c2ccccn2)CC1 [Example 94, 1-(4-(4-(Pyridin-2-yl)piperazine-1-carbonyl)benzyl)quinazoline-2,4(1H,3H)-dione] | > 10000 | > 10000 |  | 
19 | O=C(c1ccc(F)cc1)N1CCN(C(=O)c2ccc(Cn3c(=O)[nH]c(=O)c4ccccc43)cc2)CC1 [Example 96, 1-(4-(4-(4-Fluorobenzoyl)piperazine-1-carbonyl)benzyl)quinazoline-2,4(1H,3H)-dione] | > 10000 | > 10000 |  | 
20 | O=C(c1ccc(Cn2c(=O)[nH]c(=O)c3ccccc32)cc1)N1CCN(C(=O)C2CCCC2)CC1 [Example 99, 1-(4-(4-(Cyclopentylcarbonyl)piperazine-1-carbonyl)benzyl)quinazoline-2,4(1H,3H)-dione] | > 10000 | > 10000 |  | 
21 | O=C(c1cc(Cn2c(=O)[nH]c(=O)c3c(Cl)cccc32)ccc1F)N1CCN(c2ccccn2)CC1 [Example 106, 5-Chloro-1-(4-fluoro-3-(4-(pyridin-2-yl)piperazine-1-carbonyl)benzyl)quinazoline-2,4(1H,3H)-dione] | 105 | 217 |  | 
22 | O=C(c1ccc(F)c(Cn2c(=O)[nH]c(=O)c3c(Cl)cccc32)c1)N1CCN(C(=O)C2CCCCC2)CC1 [Example 108, 5-Chloro-1-(3-(4-(cyclohexylcarbonyl)piperazine-1-carbonyl)-6-fluorobenzyl)quinazoline-2,4(1H,3H)-dione] | 78 | 68 |  | 
23 | O=C(c1ccc(F)c(Cn2c(=O)[nH]c(=O)c3c(Cl)cccc32)c1)N1CCN(C(=O)C2CCCC2)CC1 [Example 109, 5-Chloro-1-(3-(4-(cyclopentylcarbonyl)piperazine-1-carbonyl)-6-fluorobenzyl)quinazoline-2,4(1H,3H)-dione] | 48 | 23 |  | 
24 | O=C(c1ccc(F)c(Cn2c(=O)[nH]c(=O)c3c(Cl)cccc32)c1)N1CCN(c2ncccn2)CC1 [Example 110, 5-Chloro-1-(6-fluoro-3-(4-(pyrimidin-2-yl)piperazine-1-carbonyl)benzyl)quinazoline-2,4(1H,3H)-dione] | 72 | 32 |  | 
